What is called IC50 is the point on the concentration scale where inhibition reaches its midpoint.

Our source for the IC50 values is patent publication US20250289793A1, “MACROCYCLIC INHIBITORS OF ATP CITRATE LYASE” (Esperion Therapeutics, Inc., priority 2022, published 2025).

Experiment [1] deals with T1, ACLY (Homo sapiens (Human), UniProt P53396). Nature of the experiment: Human ACLY (hACLY) RF/MS activity assay. The experiment is classed as biochemical. The following applies: 1 nM hACLY; 30 min pre-incubation; 15 μM Coenzyme A, 50 μM ATP, 50 μM citrate; CoA to Acetyl-CoA by RF/MS; read-out: RFMS IC50 GMean. As to the method: Compounds of the disclosure were evaluated for their efficacy in inhibiting hACLY using rapid fire mass spectrometry (RF/MS).
The final reaction volume for each compound was 20 μl and consisted of buffer (50 mM Hepes pH 8.0, 10 mM MgCl2, 0.003% BSA, 0.01% Brij35, 50 mM NaCl, 4 mM DTT) and 1 nM hACLY, EV12992, PP6692) using Greiner, 384 well small volume, deep well plates (Cat #784201). A two-fold dilution series with a top concentration of 10 μM was used to record a concentration response curve. Both the substrate (CoA) and product (Acetyl-CoA) were quantified, and given a ratio. […] The final DMSO-concentration was 1% (v/v). Compounds were pre-incubated for 30 min with the buffered enzyme solution at RT (20° C.), and substrate solution was added (final concentrations: 15 μM Coenzyme A, 50 μM ATP and 50 μM citrate) to initiate the enzyme reaction. The enzyme reaction was incubated for additional 30 min at RT. The reaction was quenched upon addition of 40 μl of 5% Formic acid in H2O and centrifuged (4350 rpm at 20° C. for 10 min).
Product formation was quantified using a RF/MS-based method based on mass change of CoA (substrate) to Acetyl-CoA (product).

The target in experiment [2] is T1, ACLY. Nature of the experiment: InCell Pulse assay (permeate HEK293 cells, bind to and stabilize ACLY). Type of experiment: cell-based. The following applies: HEK293 cells transfected with pICP-ACLY(FL)-ePL; 1 hour at 37° C., 55° C. heat pulse 10 minutes; read-out: InCell Pulse IC50 GMean. As to the method: HEK293 cells transfected for 24 hours with pICP-ACLY(FL)-ePL (3 μg DNA per T25 flask) using FuGene HD (Promega Corp.) were harvested and cryopreserved. On the day of the assay, the frozen transfected cells were thawed at 37° C., and the storage medium (DMEM with 2 mM L-Glutamine, 10% FBS and a final concentration of DMSO 10%) was exchanged with assay medium (OptiMEM; Gibco™, ThermoFischer Scientific). Compounds were 3-fold serially diluted in DMSO over 11-point concentration range. 100 nL of the corresponding dilutions were spotted into the assay plate (Greiner AG; 384 Well, PP, Small Volume, Deep Well, Natural, cat. no. 784201) followed by the addition of 20 μL of cell suspension adjusted with assay medium to 7.5E4 cells/mL. Subsequently, the plates were sealed and incubated for 1 hour at 37° C. Afterwards, the plates were fixed upside down in a rack and incubated in a 55° C. water bath for 10 minutes. Following this heat pulse step, plates were allowed to reach room temperature for 10 minutes and centrifuged for a few seconds at 1000 rpm and room temperature. 25 μL EA detection solution (working solution: 0.0167× InCell EA Reagent, 0.15× InCell Dilution Buffer, 0.167× InCell Lysis Buffer; 0.667× InCell Substrate Reagent; InCell Hunter Detection kit; Eurofins DiscoverX; cat. no. 96-0079) were added to each well. Afterwards, 42 μL were transferred from the assay plate to the detection plate (Corning Inc., 384-well Low Flange Black Flat Bottom Polystyrene NBS Microplate, cat. no. 3575), followed by an incubation for 1 hour at room temperature, a centrifugation step for 1 minute at 1000 rpm and the detection of the luminescence signal using an EnVision microplate reader (Perkin Elmer Inc.). Concentration-response curve-fitting and IC50 determination was performed using Evotec's in-house evaluation software APlus with a four-parameter non-linear regression fit model. Data was normalized to 0.5% (final concentration) DMSO as low/negative control and 1 μM (final concentration) NDI-094311 as high/positive control.

T1 sequence (P53396 whole entry): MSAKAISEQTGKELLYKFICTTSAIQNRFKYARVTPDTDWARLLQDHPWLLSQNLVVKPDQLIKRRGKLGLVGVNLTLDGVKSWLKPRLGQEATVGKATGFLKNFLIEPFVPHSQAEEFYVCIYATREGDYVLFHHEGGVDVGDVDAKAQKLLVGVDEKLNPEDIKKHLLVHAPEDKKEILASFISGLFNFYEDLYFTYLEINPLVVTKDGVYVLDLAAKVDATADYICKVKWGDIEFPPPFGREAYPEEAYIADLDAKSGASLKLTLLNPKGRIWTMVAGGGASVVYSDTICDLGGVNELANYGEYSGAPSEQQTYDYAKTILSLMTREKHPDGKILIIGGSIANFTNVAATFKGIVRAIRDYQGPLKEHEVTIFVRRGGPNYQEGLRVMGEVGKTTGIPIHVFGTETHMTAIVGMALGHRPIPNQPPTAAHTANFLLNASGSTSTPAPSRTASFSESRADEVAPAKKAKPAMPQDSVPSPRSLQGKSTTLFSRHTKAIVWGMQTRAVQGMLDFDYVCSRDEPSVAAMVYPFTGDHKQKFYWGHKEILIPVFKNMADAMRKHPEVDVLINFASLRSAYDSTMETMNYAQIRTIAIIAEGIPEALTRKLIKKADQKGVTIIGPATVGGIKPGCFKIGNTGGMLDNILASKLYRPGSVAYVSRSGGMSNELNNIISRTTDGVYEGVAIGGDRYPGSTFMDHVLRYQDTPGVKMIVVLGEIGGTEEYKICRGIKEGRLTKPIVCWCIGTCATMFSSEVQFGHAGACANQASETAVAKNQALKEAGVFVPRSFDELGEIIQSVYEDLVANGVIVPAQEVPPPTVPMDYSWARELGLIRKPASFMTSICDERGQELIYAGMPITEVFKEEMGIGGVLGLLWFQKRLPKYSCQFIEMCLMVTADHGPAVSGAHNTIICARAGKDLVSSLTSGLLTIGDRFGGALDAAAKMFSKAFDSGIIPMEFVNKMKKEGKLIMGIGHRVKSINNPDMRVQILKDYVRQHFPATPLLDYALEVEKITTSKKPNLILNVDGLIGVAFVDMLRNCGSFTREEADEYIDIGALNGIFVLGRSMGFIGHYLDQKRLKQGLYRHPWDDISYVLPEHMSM

Consider `O=C1OCCOc2ccccc2-c2ccc(F)c(c2F)NS(=O)(=O)c2cc1cc(Cl)c2O` [Compound 51, 15-chloro-21,24-difluoro-16-hydroxy-18,18-dioxo-8,11-dioxa-18λ6-thia-19-azatetracyclo[18.3.1.113,17.02,7]pentacosa-1(23),2(7),3,5,13(25),14,16,20(24),21-nonaen-12-one], for which the 50% inhibitory concentration (IC50) is 100 to 10000 nM in experiment [1] and at least 50000 nM in experiment [2].

As to `O=C1OCCOc2ccc(Cl)cc2-c2ccc(F)c(c2)NS(=O)(=O)c2cc1cc(Cl)c2O` [Compound 52, 4,15-dichloro-21-fluoro-16-hydroxy-18,18-dioxo-8,11-dioxa-18λ6-thia-19-azatetracyclo[18.3.1.113,17.02,7]pentacosa-1(23),2(7),3,5,13,15,17(25),20(24),21-nonaen-12-one], the IC50 was in the range of 20 to 100 nM in experiment [1] and 300 to 1000 nM in experiment [2].

`O=C1OCCOc2cc3cn[nH]c3cc2-c2cc(c(F)cc2F)NS(=O)(=O)c2cc1cc(Cl)c2O` [Compound 53, 18-chloro-24,26-difluoro-19-hydroxy-21,21-dioxo-11,14-dioxa-21λ6-thia-5,6,22-triazapentacyclo[21.3.1.116,20.02,10.04,8]octacosa-1(27),2(10),3,6,8,16(28),17,19,23,25-decaen-15-one]: the half-maximal inhibitory concentration (IC50) is 100 to 10000 nM in experiment [1] and at least 50000 nM in experiment [2].

As for `O=C1OCCOc2ccccc2-c2cc(F)c(F)c(c2)NS(=O)(=O)c2cc1cc(Cl)c2O` [Compound 54, 15-chloro-21,22-difluoro-16-hydroxy-18,18-dioxo-8,11-dioxa-18λ6-thia-19-azatetracyclo[18.3.1.113,17.02,7]pentacosa-1(23),2(7),3,5,13(25),14,16,20(24),21-nonaen-12-one], the IC50 in experiment [1] is below 20 nM; in experiment [2], below 300 nM.

Turning to `O=C1OCCOc2ccccc2-c2ccc(OC(F)F)c(c2)NS(=O)(=O)c2cc1cc(Cl)c2O` [Compound 55, 15-chloro-21-(difluoromethoxy)-16-hydroxy-18,18-dioxo-8,11-dioxa-18λ6-thia-19-azatetracyclo[18.3.1.113,17.02,7]pentacosa-1(23),2(7),3,5,13(25),14,16,20(24),21-nonaen-12-one], the IC50 in experiment [1] was below 20 nM; in experiment [2], 300 to 1000 nM.

As for `O=C1OCCOc2ccccc2-c2ccc(C3CC3)c(c2)NS(=O)(=O)c2cc1cc(Cl)c2O` [Compound 57, 15-chloro-21-cyclopropyl-16-hydroxy-18,18-dioxo-8,11-dioxa-18λ6-thia-19-azatetracyclo[18.3.1.113,17.02,7]pentacosa-1(23),2(7),3,5,13(25),14,16,20(24),21-nonaen-12-one], the values for the IC50 in experiment [1] and in experiment [2] were 20 to 100 nM and 1000 to 50000 nM, respectively.

Turning to `O=C1OCCOc2ccccc2-c2ccc(C(F)(F)F)c(c2)NS(=O)(=O)c2cc1cc(Cl)c2O` [Compound 58, 15-chloro-16-hydroxy-18,18-dioxo-21-(trifluoromethyl)-8,11-dioxa-18λ6-thia-19-azatetracyclo[18.3.1.113,17.02,7]pentacosa-1(24),2(7),3,5,13(25),14,16,20,22-nonaen-12-one], the IC50 in experiment [1] is 20 to 100 nM; in experiment [2], below 300 nM.

On to `O=C1OCCOc2ccccc2-c2cc(c(F)cc2F)NS(=O)(=O)c2cc1ccc2C(F)F` [Compound 60, 16-(difluoromethyl)-21,23-difluoro-18,18-dioxo-8,11-dioxa-18λ6-thia-19-azatetracyclo[18.3.1.113,17.02,7]pentacosa-1(23),2(7),3,5,13(25),14,16,20(24),21-nonaen-12-one], for which the IC50 in experiment [1] is at least 10000 nM; in experiment [2] it was at least 50000 nM.

Turning to `O=C1OCCOc2ccccc2-c2cc(c(F)cc2F)NS(=O)(=O)c2cc1cc(Cl)n2` [Compound 61, 15-chloro-21,23-difluoro-18,18-dioxo-8,11-dioxa-18λ6-thia-16,19-diazatetracyclo[18.3.1.113,17.02,7]pentacosa-1(24),2,4,6,13,15,17(25),20,22-nonaen-12-one], the values for the IC50 in experiment [1] and in experiment [2] were at least 10000 nM and at least 50000 nM, respectively.

Consider `Cc1cc2cc(n1)S(=O)(=O)Nc1cc(c(F)cc1F)-c1ccccc1OCCOC2=O` [Compound 62, 21,23-difluoro-15-methyl-18,18-dioxo-8,11-dioxa-18λ6-thia-16,19-diazatetracyclo[18.3.1.113,17.02,7]pentacosa-1(24),2,4,6,13,15,17(25),20,22-nonaen-12-one], for which the 50% inhibitory concentration (IC50) was at least 10000 nM in experiment [1] and at least 50000 nM in experiment [2].

For the molecule `Nc1cc2cc(n1)S(=O)(=O)Nc1cc(c(F)cc1F)-c1ccccc1OCCOC2=O` [Compound 63, 15-amino-21,23-difluoro-18,18-dioxo-8,11-dioxa-18λ6-thia-16,19-diazatetracyclo[18.3.1.113,17.02,7]pentacosa-1(23),2(7),3,5,13,15,17(25),20(24),21-nonaen-12-one], the IC50 in experiment [1] is at least 10000 nM; in experiment [2] it was at least 50000 nM.

Take `O=C1OCCOc2ccccc2-c2cc(c(F)cc2F)NS(=O)(=O)c2cc(O)cc1c2` [Compound 65, 21,23-difluoro-15-hydroxy-18,18-dioxo-8,11-dioxa-18λ6-thia-19-azatetracyclo[18.3.1.113,17.02,7]pentacosa-1(24),2,4,6,13,15,17(25),20,22-nonaen-12-one]: the results for the IC50 in experiment [1] and in experiment [2] were at least 10000 nM and at least 50000 nM, respectively.

With `O=S1(=O)Nc2cc(c(F)cc2F)-c2ccccc2OCCOCc2cc(Cl)c(O)c1c2` [Compound 67, 15-chloro-21,23-difluoro-18,18-dioxo-8,11-dioxa-18λ6-thia-19-azatetracyclo[18.3.1.113,17.02,7]pentacosa-1(23),2(7),3,5,13,15,17(25),20(24),21-nonaen-16-ol], the values for the IC50 in experiment [1] and in experiment [2] were below 20 nM and 300 to 1000 nM, respectively.

On to `O=C1Cc2cc(Cl)c(O)c(c2)S(=O)(=O)Nc2cc(c(F)cc2F)-c2ccccc2CO1` [Compound 68, 14-chloro-20,22-difluoro-15-hydroxy-17,17-dioxo-9-oxa-17λ6-thia-18-azatetracyclo[17.3.1.112,16.02,7]tetracosa-1(22),2(7),3,5,12(24),13,15,19(23),20-nonaen-10-one], for which the half-maximal inhibitory concentration (IC50) is below 20 nM in experiment [1] and below 300 nM in experiment [2].

Turning to `O=S1(=O)Nc2cc(ccc2F)-c2ccccc2CCOCc2cc(Cl)c(O)c1c2` [Compound 69, 14-chloro-20-fluoro-17,17-dioxo-10-oxa-17λ6-thia-18-azatetracyclo[17.3.1.112,16.02,7]tetracosa-1(23),2,4,6,12,14,16(24),19,21-nonaen-15-ol], the IC50 in experiment [1] is 100 to 10000 nM; in experiment [2], below 300 nM.

Regarding `O=C1OCC[C@H]2CCCN2c2ccc(F)c(c2)NS(=O)(=O)c2cc1cc(Cl)c2O` [Compound 70, (6R)-13-chloro-19-fluoro-14-hydroxy-16,16-dioxo-9-oxa-16%6-thia-2,17-diazatetracyclo[16.3.1.111,15.02,6]tricosa-1(21),11(23),12,14,18(22),19-hexaen-10-one], the 50% inhibitory concentration (IC50) in experiment [1] is 20 to 100 nM; in experiment [2], at least 50000 nM.

On to `CN1CCc2ccccc2-c2cc(c(F)cc2F)NS(=O)(=O)c2cc(cc(Cl)c2O)C1=O` [Compound 71, 14-chloro-20,22-difluoro-15-hydroxy-10-methyl-17,17-dioxo-17λ6-thia-10,18-diazatetracyclo[17.3.1.112,16.02,7]tetracosa-1(22),2(7),3,5,12,14,16(24),19(23),20-nonaen-11-one], for which the figures for the IC50 in experiment [1] and in experiment [2] were below 20 nM and at least 50000 nM, respectively.

Take `O=C1OCCc2ccccc2-c2ccc(F)c(c2)NS(=O)(=O)c2cc1cc(Cl)c2O` [Compound 72, 14-chloro-20-fluoro-15-hydroxy-17,17-dioxo-10-oxa-17λ6-thia-18-azatetracyclo[17.3.1.112,16.02,7]tetracosa-1(22),2(7),3,5,12,14,16(24),19(23),20-nonaen-11-one]: the results for the IC50 in experiment [1] and in experiment [2] were below 20 nM and below 300 nM, respectively.
